Measurements: ChEMBL document CHEMBL6109128, “Copper-KRAS-COX2 Axis: A Therapeutic Vulnerability in Pancreatic Cancer” (J Med Chem, 2025)
The source made the active and inactive calls. The rule behind the calls is not given here.

Legend:
[1] = Metabolic stability in human liver microsome assessed as half life measured up to 60 mins by LC-MS/MS analysis; type: ADME; details: liver microsomes
[2] = system: HCT-116; assay: Induction of apoptosis in human HCT-116 cells assessed as increase in clonogenic survival up to 1 uM incubated for 6 days in presence of Z-VAD-FMK by crystal violet staining based analysis; type: functional, cell-based; details: time 6.0 day
[3] = system: HCT-116; assay: Synergistic antiproliferative activity against human HCT-116 cells assessed as inhibition of colony formation at up to 1 uM incubated for 6 days in presence of MK-663; type: functional, cell-based; details: time 6.0 day
[4] = system: HCT-116; assay: Synergistic antiproliferative activity against human HCT-116 cells assessed as inhibition of colony formation at up to 1 uM incubated for 6 days in presence of JQ-1; type: functional, cell-based; details: time 6.0 day
[5] = system: HCT-116; assay: Induction of apoptosis in human HCT-116 cells assessed as increase in clonogenic survival up to 1 uM incubated for 6 days in presence of necrostatin-1 by crystal violet staining based analysis; type: functional, cell-based; details: time 6.0 day
[6] = system: HCT-116; assay: Synergistic antiproliferative activity against human HCT-116 cells assessed as inhibition of colony formation at up to 1 uM incubated for 6 days in presence of celecoxib; type: functional, cell-based; details: time 6.0 day
[7] = system: MIA PaCa-2; assay: Antiproliferative activity against human MIA PaCa-2 cells harboring KRAS; type: functional, cell-based
[8] = system: MIA PaCa-2; assay: Cytotoxicity against human MIA PaCa-2 cells assessed as cell death up to 1 uM incubated for 6 days in presence of NAC; type: functional, cell-based; details: time 6.0 day
[9] = Cmax in CD-1 mouse at 30 mg/kg, po measured up to 24 hrs by LC-MS/MS analysis; type: ADME, organism-based; details: in vivo
[10] = system: HCT-116; assay: Induction of necroptosis in human HCT-116 cells assessed as increase in p-RIP3 level at 10 uM incubated for 1 hr by Western blot analysis; type: functional, cell-based
[11] = system: MIA PaCa-2; assay: Induction of necroptosis in human MIA PaCa-2 cells assessed as increase in p-RIP3 level at 10 uM incubated for 1 hr by Western blot analysis; type: functional, cell-based
[12] = system: BXPC-3; assay: Synergistic antiproliferative activity against human BXPC-3 cells assessed as inhibition of colony formation at up to 1 uM incubated for 6 days in presence of celecoxib; type: functional, cell-based; details: time 6.0 day
[13] = Oral bioavailability in CD-1 mouse at 30 mg/kg measured up to 24 hrs by LC-MS/MS analysis; type: ADME, organism-based; details: in vivo
[14] = system: KPC2; assay: Synergistic antiproliferative activity against mouse KPC2 cells at 0.01 to 3 uM in presence of MRTX1133; type: functional, cell-based; details: dose 0.01-3 µM
[15] = system: MIA PaCa-2; assay: Synergistic antiproliferative activity against human MIA PaCa-2 cells assessed as inhibition of colony formation at up to 1 uM incubated for 6 days in presence of rotec-oxib; type: functional, cell-based; details: time 6.0 day
[16] = system: HCT-116; assay: Synergistic antiproliferative activity against human HCT-116 cells assessed as inhibition of colony formation at up to 1 uM incubated for 6 days in presence of rofecoxib; type: functional, cell-based; details: time 6.0 day
[17] = system: HCT-116; assay: Synergistic antiproliferative activity against human HCT-116 cells assessed as inhibition of colony formation at up to 1 uM incubated for 6 days in presence of lumi-racoxib; type: functional, cell-based; details: time 6.0 day
[18] = Metabolic stability in mouse liver microsome assessed as half life measured up to 60 mins by LC-MS/MS analysis; type: ADME; details: liver microsomes
[19] = system: Panc02; assay: Cytotoxicity against mouse Panc02 cells by MTT assay; type: functional, cell-based
[20] = system: MIA PaCa-2; assay: Cytotoxicity against human MIA PaCa-2 cells by MTT assay; type: functional, cell-based
[21] = system: MIA PaCa-2; assay: Induction of apoptosis in human MIA PaCa-2 cells assessed as increase in clonogenic survival up to 0.5 uM incubated for 6 days in presence of necrostatin-1 by crystal violet staining based analysis; type: functional, cell-based; details: time 6.0 day
[22] = system: Panc02; assay: Cytotoxicity against mouse Panc02 cells harboring wild type KRAS; type: functional, cell-based
[23] = system: HCT-116; assay: Induction of ferroptosis in human HCT-116 cells at up to 1 uM in presence of FIN56; type: functional, cell-based
[24] = system: BXPC-3; assay: Induction of apoptosis in human BXPC-3 cells assessed as increase in clonogenic survival up to 0.5 uM incubated for 6 days in presence of necrostatin-1 by crystal violet staining based analysis; type: functional, cell-based; details: time 6.0 day
[25] = system: BXPC-3; assay: Cytotoxicity against human BXPC-3 cells harboring wild type KRAS; type: functional, cell-based
[26] = system: HCT-116; assay: Induction of ferroptosis in human HCT-116 cells assessed as cell death at up to 1 uM in presence of ferrostatin-1; type: functional, cell-based
[27] = system: BXPC-3; assay: Cytotoxicity against human BXPC-3 cells by MTT assay; type: functional, cell-based
[28] = system: HCT-116; assay: Induction of autophagy in human HCT-116 cells assessed as cell death at up to 1 uM incubated for 6 days in presence of bafilomycin-A1; type: functional, cell-based; details: time 6.0 day
[29] = system: MIA PaCa-2; assay: Induction of apoptosis in human MIA PaCa-2 cells assessed as increase in clonogenic survival up to 0.5 uM incubated for 6 days in presence of Z-VAD-FMK by crystal violet staining based analysis; type: functional, cell-based; details: time 6.0 day
[30] = system: MIA PaCa-2; assay: Synergistic antiproliferative activity against human MIA PaCa-2 cells assessed as inhibition of colony formation at up to 0.5 uM in presence of CuSO4; type: functional, cell-based
[31] = system: MIA PaCa-2; assay: Synergistic antiproliferative activity against human MIA PaCa-2 cells assessed as inhibition of colony formation at up to 1 uM incubated for 6 days in presence of valdecoxib; type: functional, cell-based; details: time 6.0 day
[32] = system: HCT-116; assay: Synergistic antiproliferative activity against human HCT-116 cells assessed as inhibition of colony formation at up to 1 uM in presence of CuSO4; type: functional, cell-based
[33] = AUC (0 to infinity) in CD-1 mouse at 15 mg/kg, iv measured up to 24 hrs by LC-MS/MS analysis; type: ADME, organism-based; details: in vivo
[34] = system: MIA PaCa-2; assay: Induction of apoptosis in human MIA PaCa-2 cells assessed as upregulation of caspase 3 level at 10 uM measured for 48 hrs by Western blot analysis; type: functional, cell-based
[35] = system: KPC2; assay: Synergistic antiproliferative activity against mouse KPC2 cells assessed as inhibition of colony formation at up to 1 uM incubated for 6 days in presence of celecoxib; type: functional, cell-based; details: time 6.0 day
[36] = system: Panc02; assay: Synergistic antiproliferative activity against mouse Panc02 cells harboring wild type KRAS at 0.01 to 3 uM in presence of MRTX1133; type: functional, cell-based; details: dose 0.01-3 µM
[37] = Half life in CD-1 mouse at 30 mg/kg, po measured up to 24 hrs by LC-MS/MS analysis; type: ADME, organism-based; details: in vivo
[38] = system: HCT-116; assay: Synergistic antiproliferative activity against human HCT-116 cells assessed as inhibition of colony formation at up to 1 uM incubated for 6 days in presence of AZD6738; type: functional, cell-based; details: time 6.0 day
[39] = system: HCT-116; assay: Induction of apoptosis in human HCT-116 cells assessed as upregulation of cleaved PARP level at 1 uM measured for 24 hrs in presence of CuSO4 by Western blot analysis; type: functional, cell-based
[40] = system: MIA PaCa-2; assay: Induction of apoptosis in human MIA PaCa-2 cells assessed as upregulation of caspase 9 level at 10 uM measured for 48 hrs by Western blot analysis; type: functional, cell-based
[41] = system: MIA PaCa-2; assay: Induction of ferroptosis in human MIA PaCa-2 cells assessed as cell death at up to 1 uM in presence of ferrostatin-1; type: functional, cell-based
[42] = system: MIA PaCa-2; assay: Synergistic antiproliferative activity against human MIA PaCa-2 cells assessed as inhibition of colony formation at up to 0.5 uM in presence of TTM; type: functional, cell-based

Structure (SMILES): C[C@@H]1OCC2(CCN(c3cnc(C(=O)Nc4cc(F)cc5cccnc45)cn3)CC2)[C@@H]1N
- half-life [1]: > 60 min
- Activity [2]: Active
- Activity [3]: Active
- Activity [4]: Active
- Activity [5]: Active
- Activity [6]: Active
- Activity [7]: Active
- Activity [8]: Active
- Cmax [9]: 1020 ng/mL
- Activity [10]: Active
- Activity [11]: Active
- Activity [12]: Active
- bioavailability [13]: 55.2%
- Activity [14]: Active
- Activity [15]: Active
- Activity [16]: Active
- Activity [17]: Active
- half-life [18]: > 60 min
- IC50 [19]: 2.1 µM
- IC50 [20]: 1900 nM
- Activity [21]: Active
- Activity [22]: inactive
- Activity [23]: Active
- Activity [24]: Active
- Activity [25]: inactive
- Activity [26]: inactive
- IC50 [27]: 8.5 µM
- Activity [28]: Active
- Activity [29]: Active
- Activity [30]: Active
- Activity [31]: Active
- Activity [32]: Active
- AUC(0-inf) [33]: 6090 ng·h/mL
- Activity [34]: Active
- Activity [35]: Active
- Activity [36]: inactive
- half-life [37]: 294 min
- Activity [38]: Active
- Activity [39]: Active
- Activity [40]: Active
- Activity [41]: inactive
- Activity [42]: Active

Structure (SMILES): N[C@@H]1[C@H]2CN(c3cnc(C(=O)Nc4cc(F)cc5cccnc45)cn3)C[C@@H]12
- half-life [1]: > 60 min
- Activity [2]: Active
- Activity [3]: Active
- Activity [4]: Active
- Activity [5]: Active
- Activity [6]: Active
- Activity [7]: Active
- Activity [8]: Active
- Cmax [9]: 364 ng/mL
- Activity [10]: Active
- Activity [11]: Active
- Activity [12]: Active
- bioavailability [13]: 55.3%
- Activity [14]: Active
- Activity [15]: Active
- Activity [16]: Active
- Activity [17]: Active
- half-life [18]: > 60 min
- IC50 [19]: 8 µM
- IC50 [20]: 600 nM
- Activity [21]: Active
- Activity [22]: inactive
- Activity [23]: Active
- Activity [24]: Active
- Activity [25]: inactive
- Activity [26]: inactive
- IC50 [27]: > 10 µM
- Activity [28]: Active
- Activity [29]: Active
- Activity [30]: Active
- Activity [31]: Active
- Activity [32]: Active
- AUC(0-inf) [33]: 3450 ng·h/mL
- Activity [34]: Active
- Activity [35]: Active
- Activity [36]: inactive
- half-life [37]: 186 min
- Activity [38]: Active
- Activity [39]: Active
- Activity [40]: Active
- Activity [41]: inactive
- Activity [42]: Active
